Common to all, as to assay: relative viability (nuclei count vs DMSO), 5 days (fraction); higher = more cells survive
Compound in the assay “Ricolinostat + Olaparib”: O=C(CCCCCCNC(=O)c1cnc(N(c2ccccc2)c2ccccc2)nc1)NO [Ricolinostat] + O=C(c1cc(Cc2n[nH]c(=O)c3ccccc23)ccc1F)N1CCN(C(=O)C2CC2)CC1 [Olaparib] (partner 8 µM)
In short, it runs like this: (§1)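 Lung cancer cell lines were pin-tool dosed in 1536-well plates on the day after seeding, with either a lone drug or a fixed anchor-drug dose plus five library-drug doses (not always all listed) in √10 steps. Nuclei were counted on 4× images after 5 days. Relative viability is the ratio of treated-well to vehicle-well nuclei counts, with each value a median of duplicate plates.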

Compound in assay [1]: O=C(CCCCCCNC(=O)c1cnc(N(c2ccccc2)c2ccccc2)nc1)NO [Ricolinostat] + N=C(N)NC(=N)NCCc1ccccc1 [Phenformin] (partner 250 µM)
Summed up:
as §1

Compound in assay [2]: C1=CC=C(C(=C1)C2=CC=C(C=C2)C3=CSC4=C3C(=C(C(=O)N4)C#N)O)O + CC(=O)Nc1cccc(-n2c(=O)n(C3CC3)c(=O)c3c(Nc4ccc(I)cc4F)n(C)c(=O)c(C)c32)c1 [Trametinib] (partner 0.02 µM)
Summed up:
as §1

Compound in assay [3]: O=C(CCCCCCNC(=O)c1cnc(N(c2ccccc2)c2ccccc2)nc1)NO [Ricolinostat] + CC1(C)CCC(c2ccc(Cl)cc2)=C(CN2CCN(c3ccc(C(=O)NS(=O)(=O)c4ccc(N[C@H](CCN5CCOCC5)CSc5ccccc5)c(S(=O)(=O)C(F)(F)F)c4)cc3)CC2)C1 [Navitoclax] (partner 0.5 µM)
Summed up: as §1

Regarding ChaGo-K-1, the relative viability was determined as 0.464 with Ricolinostat + Olaparib (first compound 0.08 µM); 0.395 in the assay with Ricolinostat + Olaparib (first compound 0.253 µM); 0.364 in the assay with Ricolinostat + Olaparib (first compound 0.8 µM); 0.324 in the assay with Ricolinostat + Olaparib (first compound 2.53 µM); 0.537 in assay [1] (first compound 0.08 µM); 0.494 in assay [1] (first compound 0.253 µM). Also, the relative viability in assay [1] (first compound 0.8 µM) came to 0.46; in assay [1] (first compound 2.53 µM) it was 0.513; in assay [2] (first compound 0.08 µM), 0.94; in assay [2] (first compound 0.253 µM), 0.905; in assay [2] (first compound 0.8 µM), 0.935; in assay [2] (first compound 2.53 µM), 1.01. For the same cell line, the relative viability is 0.857 in assay [2] (first compound 8 µM); 1.11 in assay [3] (first compound 0.08 µM); 1.11 in assay [3] (first compound 0.253 µM); 0.888 in assay [3] (first compound 0.8 µM); 0.953 in assay [3] (first compound 2.53 µM).

Regarding NCI-H2126, the relative viability with Ricolinostat + Olaparib (first compound 0.08 µM) is 0.789; with Ricolinostat + Olaparib (first compound 0.253 µM), 0.889; with Ricolinostat + Olaparib (first compound 0.8 µM), 0.93; with Ricolinostat + Olaparib (first compound 2.53 µM), 0.851; in assay [1] (first compound 0.253 µM) it was 0.533; in assay [1] (first compound 0.8 µM) it was 0.521. The relative viability in assay [1] (first compound 2.53 µM) was determined as 0.499; in assay [2] (first compound 0.08 µM) it was 0.611; in assay [2] (first compound 0.253 µM), 0.51; in assay [2] (first compound 0.8 µM), 0.571; in assay [2] (first compound 2.53 µM) it was 0.54; in assay [2] (first compound 8 µM), 0.476. Also, the relative viability was 0.666 in assay [3] (first compound 0.08 µM), 0.807 in assay [3] (first compound 0.253 µM), 0.836 in assay [3] (first compound 0.8 µM) and 0.679 in assay [3] (first compound 2.53 µM).

As to HCC-827, the relative viability in the assay with Ricolinostat + Olaparib (first compound 0.08 µM) turned out to be 0.553; with Ricolinostat + Olaparib (first compound 0.253 µM), 0.634; with Ricolinostat + Olaparib (first compound 0.8 µM) it was 0.593; with Ricolinostat + Olaparib (first compound 2.53 µM) it was 0.617; in assay [1] (first compound 0.08 µM), 0.345; in assay [1] (first compound 0.253 µM) it was 0.4. Further, the relative viability in assay [1] (first compound 0.8 µM) is 0.396; in assay [1] (first compound 2.53 µM), 0.435; in assay [2] (first compound 0.08 µM) it was 0.538; in assay [2] (first compound 0.253 µM) it was 0.368; in assay [2] (first compound 0.8 µM) it was 0.538; in assay [2] (first compound 2.53 µM), 0.535. For the same cell line, the relative viability in assay [2] (first compound 8 µM) turned out to be 0.536; in assay [3] (first compound 0.08 µM) it was 0.95; in assay [3] (first compound 0.253 µM), 1.02; in assay [3] (first compound 0.8 µM), 1.01; in assay [3] (first compound 2.53 µM), 0.909.

As for LCLC-97TM1, the relative viability with Ricolinostat + Olaparib (first compound 0.08 µM) amounted to 0.355; with Ricolinostat + Olaparib (first compound 0.253 µM) it was 0.446; with Ricolinostat + Olaparib (first compound 0.8 µM), 0.486; with Ricolinostat + Olaparib (first compound 2.53 µM) it was 0.341; in assay [1] (first compound 0.08 µM) it was 0.314; in assay [1] (first compound 0.253 µM), 0.417. For the same cell line, the relative viability in assay [1] (first compound 0.8 µM) was found to be 0.45; in assay [1] (first compound 2.53 µM), 0.204; in assay [2] (first compound 0.08 µM), 0.23; in assay [2] (first compound 0.253 µM), 0.239; in assay [2] (first compound 0.8 µM), 0.247; in assay [2] (first compound 2.53 µM), 0.168. The relative viability came to 0.232 in assay [2] (first compound 8 µM); 0.41 in assay [3] (first compound 0.08 µM); 0.431 in assay [3] (first compound 0.253 µM); 0.485 in assay [3] (first compound 0.8 µM); 0.357 in assay [3] (first compound 2.53 µM).

As for HCC-15, the relative viability came to 0.669 in the assay with Ricolinostat + Olaparib (first compound 0.08 µM); 0.57 in the assay with Ricolinostat + Olaparib (first compound 0.253 µM); 0.64 in the assay with Ricolinostat + Olaparib (first compound 0.8 µM); 0.59 with Ricolinostat + Olaparib (first compound 2.53 µM); 0.411 in assay [1] (first compound 0.08 µM); 0.509 in assay [1] (first compound 0.253 µM). Further, the relative viability is 0.486 in assay [1] (first compound 0.8 µM); 0.496 in assay [1] (first compound 2.53 µM); 0.39 in assay [2] (first compound 0.08 µM); 0.369 in assay [2] (first compound 0.253 µM); 0.409 in assay [2] (first compound 0.8 µM); 0.427 in assay [2] (first compound 2.53 µM). The relative viability stood at 0.358 in assay [2] (first compound 8 µM); 0.649 in assay [3] (first compound 0.08 µM); 0.75 in assay [3] (first compound 0.253 µM); 0.767 in assay [3] (first compound 0.8 µM); 0.616 in assay [3] (first compound 2.53 µM).

Values taken from the supplement of paper PMC10307832.
